According to patent US20020102893A1, “ANTI-TACK SPANDEX FIBERS CONTAINING ANTIMICROBIAL AGENTS THEREIN AND FABRICS MADE THEREFROM” (priority 2000, published 2002):

How the values were obtained:
[1] = no test described; cited from earlier work
[2] = Discoloration (photoreduction) of spandex yarns after exposure to indoor fluorescent light; format: physicochemical; settings: after 1 month under typical indoor (fluorescent) light; antimicrobial within spandex yarn
Experimental: The Example spandex yarns were also tested for discoloration (photoreduction) after exposure to typical indoor (fluorescent) light after 1 month of such storage. […] Thus, for this purpose AlphaSan®-type antimicrobials are most preferred. […] Thus, for anti-tack, discoloration, and resiliency within and on the target spandex yarns, the AlphaSan® antimicrobials are, again, most preferred. The discoloration results are as follows, again with a non-antimicrobial control for comparison: […]

In the case of `Oc1cc(Cl)ccc1Oc1ccc(Cl)cc1Cl` [triclosan], the water solubility [1] is given as “highly water soluble” and the “discoloration (photoreduction) performance, in words” value [2] is given as “excellent colorations”.
